Target: recombinant DYRK1A kinase (Homo sapiens, UniProt Q13627)
Assay: DYRK1A kinase assay (Ser/Thr 18 peptide Z-lyte FRET)
Format: biochemical
Details: DYRK1A kinase activity; 15 μM ATP, 4 μM Ser/Thr peptide 18, one hour at room temperature
Description: Representative compounds were screened using the assay procedure for DYRK1A kinase activity as described below.
Each compound was dissolved in DMSO as a 10 mM stock and used to prepare compound source plates. Serial dilution (1:3, 11-point dose-response curves from 10 μM to 0.00016 μM) and compound transfer was performed using the ECHO 550 (Labcyte, Sunnyvale, Calif.) into 1536-well black-walled round bottom plates (Corning).
The DYRK1A kinase assay was run using the Ser/Thr 18 peptide Z-lyte assay kit according to manufacturer's instructions (Life Technologies—a Division of Thermo-Fisher). This is a non-radioactive assay using fluorescence resonance energy transfer (FRET) between coumarin and fluorescein to detect kinase activity which is represented as a ratio of coumarin emission/fluorescein emission.
Briefly, recombinant DYRK1A kinase, ATP and Ser/Thr peptide 18 were prepared in 1× Kinase buffer to final concentrations of 0.25 μg/mL, 15 μM, and 4 μM respectively. The mixture was allowed to incubate with the representative compounds for one hour at room temperature. All reactions were performed in duplicate. Unphosphorylated (“0% Control”) and phosphorylated (“100% control”) forms of Ser/Thr 18 served as control reactions. Additionally, an 11-point dose-response curve of Staurosporine (1 uM top) was run to serve as a positive compound control.
After incubation, Development Reagent A was diluted in Development Buffer then added to the reaction and allowed to further incubate for one hour at room temperature. The plate was read at Ex 400 Em 455 to detect the coumarin signal and Ex 400 Em 520 to measure the signal (EnVision Multilabel Plate Reader, PerkinElmer).
The Emission ratio (Em) was calculated as a ratio of the coumarin (C) emission signal (at 445 nm)/Fluorescein (F) emission signal (at 520 nm). The percent phosphorylation was then calculated using the following formula: [1−((Em ratio×F100%)−C100%)/((C0%−C100%)+(Em ratio×(F100%−F0%)))]. Dose-response curves were generated, and inhibitory concentration (IC50) values were calculated using non-linear regression curve fit in the Dotmatics' Studies Software (Bishops Stortford, UK).

Question: Which EC50 does the source give for `CN1CCC(Oc2ncnc3ccc(-c4c[nH]c5ncccc45)cc23)CC1` [Compound 99, 4-((1-Methylpiperidin-4-yl)oxy)-6-(1H-pyrrolo[2,3-b]pyridin-3-yl) quinazoline] here?
Answer: The EC50 was 2 nM.

Question: How did the EC50 turn out when `CN1CCC(Nc2ncnc3ccc(-c4c[nH]c5ncccc45)cc23)CC1` [Compound 100, N-(1-Methylpiperidin-4-yl)-6-(1H-pyrrolo[2,3-b]pyridin-3-yl) quinazolin-4-amine] was run?
Answer: The EC50 was 6 nM.

Question: `COc1ccc(Nc2ncnc3ccc(-c4c[nH]c5ncccc45)cc23)cn1` [Compound 101, N-(6-Methoxypyridin-3-yl)-6-(1H-pyrrolo[2,3-b]pyridin-3-yl) quinazolin-4-amine] was tested. Which EC50 did it give?
Answer: The EC50 was 6 nM.

Question: With `CN1CCC(Oc2ccc(Nc3ncnc4ccc(-c5c[nH]c6ncccc56)cc34)cn2)CC1` [Compound 102, N-(6-((1-Methylpiperidin-4-yl)oxy)pyridin-3-yl)-6-(1H-pyrrolo[2,3-b]pyridin-3-yl)quinazolin-4-amine] as the molecule, how does the EC50 read?
Answer: Its EC50 is 2 nM.

Question: `c1cncc(CNc2ncnc3ccc(-c4c[nH]c5ncccc45)cc23)c1` [Compound 103, N-(Pyridin-3-ylmethyl)-6-(1H-pyrrolo[2,3-b]pyridin-3-yl)quinazolin-4-amine] was tested. Which EC50 did it give?
Answer: The EC50 was 1 nM.

Question: With `CN1CCN(c2ccc(CNc3ncnc4ccc(-c5c[nH]c6ncccc56)cc34)cn2)CC1` [Compound 104, N-((6-(4-Methylpiperazin-1-yl)pyridin-3-yl)methyl)-6-(1H-pyrrolo[2,3-b]pyridin-3-yl)quinazolin-4-amine] as the molecule, how does the EC50 read?
Answer: Its EC50 is 11 nM.

Question: For `CN1CCN(c2cc(CNc3ncnc4ccc(-c5c[nH]c6ncccc56)cc34)ccn2)CC1` [Compound 105, N-((2-(4-Methylpiperazin-1-yl)pyridin-4-yl)methyl)-6-(1H-pyrrolo [2,3-b]pyridin-3-yl)quinazolin-4-amine], which EC50 is on record?
Answer: The EC50 was 4 nM.

Question: For `CN1CCC(NC(=O)c2ncnc3ccc(-c4c[nH]c5ncccc45)cc23)CC1` [Compound 106, N-(1-Methylpiperidin-4-yl)-6-(1H-pyrrolo[2,3-b]pyridin-3-yl) quinazoline-4-carboxamide], which EC50 is on record?
Answer: Its EC50 is 3 nM.

Question: For `O=C(c1ncnc2ccc(-c3c[nH]c4ncccc34)cc12)N1CCNC2(CC2)C1` [Compound 108, (6-(1H-Pyrrolo[2,3-b]pyridin-3-yl)quinazolin-4-yl)(4,7-diazaspiro [2.5]octan-7-yl)methanone], which EC50 is on record?
Answer: Its EC50 is 52 nM.

Question: With `COc1ccnc2[nH]cc(-c3ccn4ncc(C(=O)NC5CCN(C)CC5)c4c3)c12` [Compound 128, 5-(4-Methoxy-1H-pyrrolo[2,3-b]pyridin-3-yl)-N-(1-methylpiperidin-4-yl)pyrazolo[1,5-a]pyridine-3-carboxamide] as the molecule, how does the EC50 read?
Answer: Its EC50 is 1 nM.

Question: For `Cn1cc(-c2ccnc3[nH]cc(-c4ccc5ncccc5c4)c23)cn1` [Compound 186, 6-(4-(1-methyl-1H-pyrazol-4-yl)-1H-pyrrolo[2,3-b]pyridin-3-yl) quinoline], which EC50 is on record?
Answer: The EC50 was 10 nM.

Question: Which EC50 does the source give for `O=C1CC2(CCNCC2)Oc2cc(-c3c[nH]c4ncc(Cl)cc34)ccc21` [Compound 226, 7-(5-Chloro-1H-pyrrolo[2,3-b]pyridin-3-yl)spiro[chromane-2,4′-piperidin]-4-one] here?
Answer: Its EC50 is 36 nM.

Question: For `CN1CCN(C(=O)c2cnn3ccc(-c4c[nH]c5ncc(F)cc45)cc23)CC1` [Compound 257, (5-(5-Fluoro-1H-pyrrolo[2,3-b]pyridin-3-yl)pyrazolo[1,5-a]pyridin-3-yl)(4-methylpiperazin-1-yl)methanone], which EC50 is on record?
Answer: Its EC50 is 16 nM.

Question: For `Cc1cnc2[nH]cc(-c3ccc4nccn4c3)c2c1` [Compound 280, 6-(5-methyl-1H-pyrrolo[2,3-b]pyridin-3-yl)imidazo[1,2-a]pyridine], which EC50 is on record?
Answer: Its EC50 is 4 nM.

Question: Which EC50 does the source give for `Cc1nc2c(F)cc(-c3c[nH]c4ncc(C5=CCN(C)CC5)cc34)cc2n1C(C)C` [Compound 325, 4-Fluoro-1-isopropyl-2-methyl-6-(5-(1-methyl-1,2,3,6-tetrahydropyridin-4-yl)-1H-pyrrolo[2,3-b]pyridin-3-yl)-1H-benzo[d]imidazole] here?
Answer: Its EC50 is 2 nM.

Question: With `Cc1nc2c(F)cc(-c3c[nH]c4ncc(N5CCN(C)CC5)cc34)cc2n1C(C)C` [Compound 367, 4-Fluoro-1-isopropyl-2-methyl-6-(5-(4-methylpiperazin-1-yl)-1H-pyrrolo[2,3-b]pyridin-3-yl)-1H-benzo[d]imidazole] as the molecule, how does the EC50 read?
Answer: The EC50 was 2 nM.

Question: `Cc1nc2c(F)cc(-c3c[nH]c4ncc(CN5CCN(C)CC5)cc34)cc2n1C(C)C` [Compound 409, 4-Fluoro-1-isopropyl-2-methyl-6-(5-((4-methylpiperazin-1-yl)methyl)-1H-pyrrolo[2,3-b]pyridin-3-yl)-1H-benzo[d]imidazole] was tested. Which EC50 did it give?
Answer: Its EC50 is 13 nM.

Question: How did the EC50 turn out when `CN1CCN(Cc2cnc3[nH]cc(-c4ccc5c(c4)C(C)(C)CNC5=O)c3c2)CC1` [Compound 435, 4,4-dimethyl-6-(5-((4-methylpiperazin-1-yl)methyl)-1H-pyrrolo[2,3-b]pyridin-3-yl)-3,4-dihydroisoquinolin-1(2H)-one] was run?
Answer: Its EC50 is 96 nM.

Question: With `CN1CCN(Cc2cnc3[nH]cc(-c4ccc5nccnc5c4)c3c2)CC1` [Compound 439, 6-(5-((4-Methylpiperazin-1-yl)methyl)-1H-pyrrolo[2,3-b]pyridin-3-yl) quinoxaline] as the molecule, how does the EC50 read?
Answer: The EC50 was 16 nM.

Question: Which EC50 does the source give for `Cc1nc2c(F)cc(-c3c[nH]c4ncc(C(=O)NC5CCN(C)CC5)cc34)cc2n1C(C)C` [Compound 451, 3-(4-Fluoro-1-isopropyl-2-methyl-1H-benzo[d]imidazol-6-yl)-N-(1-methylpiperidin-4-yl)-1H-pyrrolo[2,3-b]pyridine-5-carboxamide] here?
Answer: The EC50 was 4 nM.

Question: How did the EC50 turn out when `CN1CCC(NC(=O)c2cnc3[nH]cc(-c4ccc5ncncc5c4)c3c2)CC1` [Compound 482, N-(1-Methylpiperidin-4-yl)-3-(quinazolin-6-yl)-1H-pyrrolo[2,3-b] pyridine-5-carboxamide] was run?
Answer: The EC50 was 15 nM.

Question: `Cc1nc2c(F)cc(-c3c[nH]c4ncc(C(=O)N5CCN(C)CC5)cc34)cc2n1C(C)C` [Compound 493, (3-(4-Fluoro-1-isopropyl-2-methyl-1H-benzo[d]imidazol-6-yl)-1H-pyrrolo[2,3-b]pyridin-5-yl)(4-methylpiperazin-1-yl)methanone] was tested. Which EC50 did it give?
Answer: Its EC50 is 7 nM.

Question: For `CN1CCN(C(=O)c2cnc3[nH]cc(-c4ccn5ncc(-c6cnn(C)c6)c5c4)c3c2)CC1` [Compound 502, (3-(3-(1-Methyl-1H-pyrazol-4-yl)pyrazolo[1,5-a]pyridin-5-yl)-1H-pyrrolo[2,3-b]pyridin-5-yl)(4-methylpiperazin-1-yl)methanone], which EC50 is on record?
Answer: The EC50 was 16 nM.

Question: For `CN1CCN(C(=O)c2cnc3[nH]cc(-c4ccc5c(c4)OCCNC5=O)c3c2)CC1` [Compound 521, 8-(5-(4-Methylpiperazine-1-carbonyl)-1H-pyrrolo[2,3-b]pyridin-3-yl)-3,4-dihydrobenzo[f][1,4]oxazepin-5(2H)-one], which EC50 is on record?
Answer: The EC50 was 9 nM.

Question: Which EC50 does the source give for `Cc1nc2c(F)cc(-c3c[nH]c4ncc(C(=O)N5C6CCC5CN(C)C6)cc34)cc2n1C(C)C` [Compound 535, (3-(4-Fluoro-1-isopropyl-2-methyl-1H-benzo[d]imidazol-6-yl)-1H-pyrrolo[2,3-b]pyridin-5-yl)(3-methyl-3,8-diazabicyclo[3.2.1]octan-8-yl)methanone] here?
Answer: The EC50 was 2 nM.

Question: Which EC50 does the source give for `Cc1cn2c(n1)CN(C(=O)c1cnc3[nH]cc(-c4cc5n(c4)CCNC5=O)c3c1)CC2` [Compound 573, 7-(5-(2-Methyl-5,6,7,8-tetrahydroimidazo[1,2-a]pyrazine-7-carbonyl)-1H-pyrrolo[2,3-b]pyridin-3-yl)-3,4-dihydropyrrolo[1,2-a]pyrazin-1(2H)-one] here?
Answer: The EC50 was 10 nM.

Question: With `Cc1cn2c(n1)CN(C(=O)c1cnc3[nH]cc(-c4cc(F)c5nc(C)n(C(C)C)c5c4)c3c1)CC2` [Compound 577, (3-(4-Fluoro-1-isopropyl-2-methyl-1H-benzo[d]imidazol-6-yl)-1H-pyrrolo[2,3-b]pyridin-5-yl)(2-methyl-5,6-dihydroimidazo[1,2-a]pyrazin-7(8H)-yl)methanone] as the molecule, how does the EC50 read?
Answer: Its EC50 is 3 nM.

Question: `CN1CCC(C(=O)Nc2cnc3[nH]cc(-c4ccc5ncccc5c4)c3c2)CC1` [Compound 648, 1-Methyl-N-(3-(quinolin-6-yl)-1H-pyrrolo[2,3-b]pyridin-5-yl) piperidine-4-carboxamide] was tested. Which EC50 did it give?
Answer: Its EC50 is 2 nM.

Question: For `Cc1nc2c(F)cc(-c3c[nH]c4ncc(C(=O)Nc5cnn(C6CCNCC6)c5)cc34)cc2n1C(C)C` [Compound 661, 3-(4-Fluoro-1-isopropyl-2-methyl-1H-benzo[d]imidazol-6-yl)-N-(1-(piperidin-4-yl)-1H-pyrazol-4-yl)-1H-pyrrolo[2,3-b]pyridine-5-carboxamide], which EC50 is on record?
Answer: The EC50 was 2 nM.

Question: `Cc1nc2c(F)cc(-c3c[nH]c4ncc(C(=O)Nc5cnn(C6CCN(C)CC6)c5)cc34)cc2n1C(C)C` [Compound 703, 3-(4-Fluoro-1-isopropyl-2-methyl-1H-benzo[d]imidazol-6-yl)-N-(1-(1-methylpiperidin-4-yl)-1H-pyrazol-4-yl)-1H-pyrrolo[2,3-b]pyridine-5-carboxamide] was tested. Which EC50 did it give?
Answer: Its EC50 is 3 nM.
